# Experimental data as given in PMC6219668 (Oncotarget, 2018).
# System: panel of nearly 500 cancer cell lines
# Assay: Cancer Cell Line Encyclopedia profiling, 3-day CellTiter-Glo
# Type: cell-based
# Parameters: Amax: unit not given here
compound,measurement,setting,value
"CN(C)C(=O)c1cc2cnc(Nc3ccc(N4CCNCC4)cn3)nc2n1C1CCCC1 [Ribociclib, 7-cyclopentyl-2-(5-piperazin-1-yl-pyridin-2-ylamino)-7H-pyrrolo[2,3-d]pyrimidine-6-carboxylic acid dimethylamide]",EC50,"Homo sapiens, TCC-SUP",> 8 µM
same,IC50,"Homo sapiens, TCC-SUP",> 8 µM
same,EC50,"Homo sapiens, TE-11",2.09 µM
same,IC50,"Homo sapiens, TE-11",> 8 µM
same,EC50,"Homo sapiens, TE-15",1.23 µM
same,IC50,"Homo sapiens, TE-15",> 8 µM
same,EC50,"Homo sapiens, TOV21G",1.23 µM
same,IC50,"Homo sapiens, TOV21G",> 8 µM
same,EC50,"Homo sapiens, TOV112D",0.995 µM
same,IC50,"Homo sapiens, TOV112D",> 8 µM
same,EC50,"Homo sapiens, Toledo",1.52 µM
same,IC50,"Homo sapiens, Toledo",> 8 µM
same,EC50,"Homo sapiens, U2OS",2.09 µM
same,IC50,"Homo sapiens, U2OS",> 8 µM
same,EC50,"Homo sapiens, U-87 MG",> 8 µM
same,IC50,"Homo sapiens, U-87 MG",> 8 µM
same,EC50,"Homo sapiens, U-118-MG",2.68 µM
same,IC50,"Homo sapiens, U-118-MG",> 8 µM
same,EC50,"Homo sapiens, U-937",1.74 µM
same,IC50,"Homo sapiens, U-937",3.52 µM
same,EC50,"Homo sapiens, UACC-62",1.62 µM
same,IC50,"Homo sapiens, UACC-62",> 8 µM
same,EC50,"Homo sapiens, UACC-257",0.577 µM
same,IC50,"Homo sapiens, UACC-257",> 8 µM
same,EC50,"Homo sapiens, UACC-812",> 8 µM
same,IC50,"Homo sapiens, UACC-812",> 8 µM
same,EC50,"Homo sapiens, UMUC3",> 8 µM
same,IC50,"Homo sapiens, UMUC3",> 8 µM
same,EC50,"Homo sapiens, WM 266-4",0.946 µM
same,IC50,"Homo sapiens, WM 266-4",> 8 µM
same,EC50,"Homo sapiens, WM793",> 8 µM
same,IC50,"Homo sapiens, WM793",> 8 µM
same,EC50,"Homo sapiens, WM-115",> 8 µM
same,IC50,"Homo sapiens, WM-115",> 8 µM
same,EC50,"Homo sapiens, YKG-1",> 8 µM
same,IC50,"Homo sapiens, YKG-1",> 8 µM
same,EC50,"Homo sapiens, ZR-75-1",> 8 µM
same,IC50,"Homo sapiens, ZR-75-1",> 8 µM
same,EC50,"Homo sapiens, ZR-75-30",> 8 µM
same,IC50,"Homo sapiens, ZR-75-30",> 8 µM
same,EC50,Hs766T,> 8 µM
same,IC50,Hs766T,> 8 µM
same,EC50,IGR-39,> 8 µM
same,IC50,IGR-39,> 8 µM
same,EC50,JHH7,1.83 µM
same,IC50,JHH7,> 8 µM
same,EC50,JHH-2,7.93 µM
same,IC50,JHH-2,> 8 µM
same,EC50,JHH-4,2.24 µM
same,IC50,JHH-4,> 8 µM
same,EC50,JMSU-1,> 8 µM
same,IC50,JMSU-1,> 8 µM
same,EC50,KE-97,3.81 µM
same,IC50,KE-97,4.53 µM
same,EC50,KHM-1B,0.34 µM
same,IC50,KHM-1B,> 8 µM
same,IC50,KMM-1,4.23 µM
same,EC50,KMRC-1,0.907 µM
same,IC50,KMRC-1,> 8 µM
same,EC50,KMS-26,3.37 µM
same,IC50,KMS-26,2.53 µM
same,EC50,Karpas-620,0.0773 µM
same,IC50,Karpas-620,> 8 µM
same,EC50,Kelly,6.64 µM
same,IC50,Kelly,6.64 µM
same,EC50,LOU-NH91,> 8 µM
same,IC50,LOU-NH91,> 8 µM
same,EC50,LUDLU-1,0.0154 µM
same,IC50,LUDLU-1,> 8 µM
same,EC50,Mono-Mac-1,0.704 µM
same,IC50,Mono-Mac-1,3.22 µM
same,EC50,NCI-H322,> 8 µM
same,IC50,NCI-H322,> 8 µM
same,EC50,NCI-H1339,> 8 µM
same,IC50,NCI-H1339,> 8 µM
same,EC50,NCI-H1568,> 8 µM
same,IC50,NCI-H1568,> 8 µM
same,EC50,NCI-H1915,> 8 µM
same,IC50,NCI-H1915,> 8 µM
same,EC50,NCI-H2023,0.0698 µM
same,IC50,NCI-H2023,> 8 µM
same,EC50,NCI-H2172,> 8 µM
same,IC50,NCI-H2172,> 8 µM
same,EC50,OCUM1,> 8 µM
same,IC50,OCUM1,> 8 µM
same,EC50,OE21,> 8 µM
same,IC50,OE21,4.52 µM
same,EC50,ONCO-DG-1,> 8 µM
same,IC50,ONCO-DG-1,> 8 µM
same,EC50,PK-59,> 8 µM
same,IC50,PK-59,> 8 µM
same,EC50,PL45,0.0975 µM
same,IC50,PL45,> 8 µM
same,EC50,PaTu 8902,> 8 µM
same,IC50,PaTu 8902,> 8 µM
same,EC50,QGP-1,0.309 µM
same,IC50,QGP-1,2.33 µM
same,EC50,SH-10-TC,> 8 µM
same,IC50,SH-10-TC,> 8 µM
same,EC50,SUIT-2,1.62 µM
same,IC50,SUIT-2,7.97 µM
same,EC50,SW579,0.929 µM
same,IC50,SW579,> 8 µM
same,EC50,SW1271,2.54 µM
same,IC50,SW1271,> 8 µM
same,EC50,TC-71,> 8 µM
same,IC50,TC-71,> 8 µM
same,EC50,WM983B,0.114 µM
same,IC50,WM983B,0.327 µM
same,EC50,WM-1799,0.202 µM
same,IC50,WM-1799,> 8 µM
same,Amax,a172 (central_nervous_system),-18.6367
same,Amax,a204 (soft_tissue),-24.3309
same,Amax,a253 (salivary_gland),9.763
same,Amax,a2058 (skin),0.435
same,Amax,g402 (soft_tissue),-59.1579
same,Amax,gamg (central_nervous_system),-4.349
same,Amax,gb1 (central_nervous_system),-5.547
same,Amax,gciy (stomach),-6.8217
same,Amax,gct (soft_tissue),-35.032
same,Amax,gi1 (central_nervous_system),1.537
same,Amax,glc82 (lung),6.841
same,Amax,gms10 (central_nervous_system),6.4331
same,Amax,granta519 (haematopoietic_and_lymphoid_tissue),-7.882
same,Amax,h4 (central_nervous_system),-7.315
same,Amax,hara (lung),-39.5316
same,Amax,hcc15 (lung),11.5352
same,Amax,hcc44 (lung),-21.2383
same,Amax,hcc56 (large_intestine),-7.243
same,Amax,hcc70 (breast),9.331
same,Amax,hcc78 (lung),8.5798
same,Amax,hcc827 (lung),5.053
same,Amax,hcc1187 (breast),-1.8256
same,Amax,hcc1395 (breast),4.555
same,Amax,hcc1569 (breast),-4.171
same,Amax,hcc1806 (breast),-2.407
same,Amax,hcc1954 (breast),5.4786
same,Amax,hcc2935 (lung),3.035
same,Amax,hcc4006 (lung),-45.676
same,Amax,hct15 (large_intestine),-18.4329
same,Amax,hct116 (large_intestine),-41.8056
same,Amax,hdmyz (haematopoietic_and_lymphoid_tissue),-70.2074
same,Amax,hdqp1 (breast),-11.6831
same,Amax,hec1a (endometrium),-0.2935
same,Amax,hec1b (endometrium),-44.265
same,Amax,hec6 (endometrium),9.745
same,Amax,hec59 (endometrium),-17.0499
same,Amax,hec151 (endometrium),0.04545
same,Amax,hec251 (endometrium),3.202
same,Amax,hec265 (endometrium),6.223
same,Amax,hel9217 (haematopoietic_and_lymphoid_tissue),0.4869
same,Amax,hep3b217 (liver),2.738
same,Amax,hepg2 (liver),-37.2895
same,Amax,heya8 (ovary),-44.7632
same,Amax,hgc27 (stomach),-65.8757
same,Amax,hh (haematopoietic_and_lymphoid_tissue),-3.613
same,Amax,hle (liver),-18.5726
same,Amax,hlf (liver),6.292
same,Amax,hmc18 (breast),-31.7315
same,Amax,hmcb (skin),-41.1129
same,Amax,hos (bone),-0.8851
same,Amax,hpac (pancreas),-55.1912
same,Amax,hpafii (pancreas),-3.9084
same,Amax,hs229t (lung),-28.1577
same,Amax,hs294t (skin),-32.1941
same,Amax,hs578t (breast),-21.2687
same,Amax,hs695t (skin),-3.506
same,Amax,hs729 (soft_tissue),10.8537
same,Amax,hs739t (breast),-26.62
same,Amax,hs746t (stomach),-37.6649
same,Amax,hs766t (pancreas),-32.0513
same,Amax,hs840t (upper_aerodigestive_tract),-29.2379
same,Amax,hs852t (skin),-6.059
same,Amax,hs936t (skin),-38.0651
same,Amax,hs939t (skin),-14.4612
same,Amax,hsc2 (upper_aerodigestive_tract),0.4805
same,Amax,ht29 (large_intestine),-56.1634
same,Amax,ht144 (skin),-18.5925
same,Amax,ht1080 (soft_tissue),-36.8044
same,Amax,ht1197 (urinary_tract),-10.59
same,Amax,ht1376 (urinary_tract),7.547
same,Amax,ht (haematopoietic_and_lymphoid_tissue),8.223
same,Amax,hucct1 (biliary_tract),1.7282
same,Amax,huh1 (liver),-43.6531
same,Amax,hupt3 (pancreas),-32.6303
same,Amax,hupt4 (pancreas),-52.4819
same,Amax,hut78 (haematopoietic_and_lymphoid_tissue),8.299
same,Amax,ialm (lung),0.7254
same,Amax,igr37 (skin),-22.1572
same,Amax,igr39 (skin),0.9211
same,Amax,igrov1 (ovary),-1.9772
same,Amax,im95 (stomach),-0.7889
same,Amax,imr32 (autonomic_ganglia),-55.0108
same,Amax,ipc298 (skin),-16.0715
same,Amax,ishikawaheraklio02er (endometrium),0.9691
same,Amax,istmes1 (pleura),-35.2757
same,Amax,istmes2 (pleura),-42.1214
same,Amax,j82 (urinary_tract),-0.8954
same,Amax,jhh2 (liver),-16.2272
same,Amax,jhh4 (liver),-26.3135
same,Amax,jhh5 (liver),-74.5916
same,Amax,jhh6 (liver),4.949
same,Amax,jhh7 (liver),-42.8596
same,Amax,jhos2 (ovary),12.8505
same,Amax,jhos4 (ovary),4.354
same,Amax,jhuem2 (endometrium),-27.6126
